Measured values from patent publication US7435872B2, “Role of p62 in aging-related disease” (Samsung Electronics, Co., Ltd., priority 2002, dated 2008).
Square brackets hold non-standard residues; d marks the D form. Peptide text beside a SMILES is read from it. * marks the point of attachment. Nle = CCCC[C@H](N)C(=O)O; Cbz = O=C(OCc1ccccc1)*

Experiments:
[1] = tested on: HEK 293 cells; assay: Colocalization of p62 with multi-ubiquitin chain; assay type: cell-based; conditions: increasing concentrations of LLnL, 16 hours
[2] = tested on: p62 gene; assay: Activation of the p62 gene, immunoblot and RNA analysis; assay type: cell-based; conditions: COS7 cells, 20 mM LLnL, with or without actinomycin D
Description: Equivalent loading was confirmed by anti-beta-actin immunoblotting. […] Equivalent loading of RNA was confirmed by staining 28S and 18S ribosomal RNA with ethidium bromide (lower panel).

[3] = tested on: COS7 cells; assay: Sequestosome (p62 inclusion) formation, anti-p62 immunostaining; design: p62 accumulation in sequestosome / cellular inclusion formation in the presence of translational inhibitor: dose or concentration left out as unconfirmed; conditions: 12 hours; for formation of sequestosome: 20 mM ALLN, 5 mM lactacystin, 10 mM MG 132, 50 nM epoxomicin
[4] = tested on: mouse embryonic fibroblasts (MEFs); assay: Ubiquitin-positive inclusion formation in MEFs; assay type: cell-based; design: dose or concentration left out as unconfirmed; conditions: 12 hours
Description: FIGS. 37A-37B show p62 aggregates formed in MEF in the presence of GSH-depletor. […] Bar=10 μm.
Ubiquitin-p62 inclusion is formed in mouse embryonic fibroblasts. […] MEFs from p62 null embryos were transfected with a p62 expression vector.
Further, p62-positive intracellular inclusion are also formed by oxidative stress. For instance, FIGS. 37A-37B show the formation of p62- or ubiquitin-positive aggregates in MEF in the presence of glutathione (GSH) depletory, diethylmaleate (DEM). […] Thus, p62 has a function to collect misfolded and/or ubiquitinated intracellular proteins and make intracellular inclusions.

[5] = tested on: p62+/+ and p62-/- mouse embryo fibroblast (MEF); assay: Cell viability by MTT assay after glutathione depletion; assay type: cell-based; conditions: different concentrations of DEM or BSO; p62-null versus wild type MEFs
Method: (§1) FIGS. 44A-44B show effects of glutathione depletion on cell viability in p62+/+ and p62−/− mouse embryo fibroblast (MEF). Cell viability was assessed with a methylthiazolium (MTT) assay, which measures mitochondrial dehydrogenase activity of viable cells spectrophotometrically. MEF (3×10^3 cells/well) in 96-well plates were treated with different concentrations of DEM (A) or BSO (B) washed with PBS and then incubated with 0.5 mg/ml MTT in PBS for 4 h. To solubilize the formazan products, […] DMSO was added. The absorption values at 570 nm were determined.
as §1, with “In addition to the above, FIGS.” for “FIGS.”, “determined. […] This death of p62-null MEFs is an apoptotic process (FIG. 48). Thus, p62 appears to have the function of regulating cellular redox status and/or cellular reactive oxygen species (ROS) generation and scavenging systems.” for “determined.”

[6] = tested on: COS7 cells; assay: p62 level in triton X-100 soluble and insoluble fractions, immunoblot; assay type: cell-based; design: dose or concentration left out as unconfirmed; conditions: plus cycloheximide

Compound: CCCC[C@@H](C=O)NC(=O)[C@H](CC(C)C)NC(=O)[C@H](CC(C)C)NC(C)=O [LLnL] (Ac-Leu-Leu-[Nle]-aldehyde)
- colocalization of p62 with multi-ubiquitin chain [1]: colocalization of p62 with multi-ubiquitin chain
- p62 gene activation / p62 level [2]: activation of the p62 gene
- p62 accumulation in sequestosome [3]: p62 accumulates in sequestosome
- formation of sequestosome [3]: can induce formation of sequestosome
- ubiquitin-positive inclusion formation, p62-heterozygote MEF [4]: can form the inclusion but less efficiently
- ubiquitin-positive inclusion formation, p62-null MEF [4]: cannot form the inclusion at all
- ubiquitin-positive inclusion formation, p62 wild type MEF [4]: formed ubiquitin-positive inclusions well

Compound: CC(=O)N[C@@H](CSC(=O)[C@]1([C@@H](O)C(C)C)NC(=O)[C@H](C)[C@@H]1O)C(=O)O [lactacystin]
- formation of sequestosome [3]: can induce formation of sequestosome

Compound: CCCCS(=N)(=O)CCC(N)C(=O)O (stereo not shown) [BSO, buthioninesulfoximine]
- cell viability (MTT) on glutathione depletion [5]: p62-null MEFs die more readily compared with wild type MEFs

Compound: C[C@@H]1C[C@@H]([C@H](O)CC2CC(=O)NC(=O)C2)C(=O)[C@@H](C)C1 [cycloheximide]
- p62 cellular level [6]: not increased
- cellular inclusion formation in the presence of translational inhibitor ([3]; plus cycloheximide): not formed

Compound: CC(C)C[C@@H](C=O)NC(=O)[C@H](CC(C)C)NC(=O)[C@H](CC(C)C)NC(=O)OCc1ccccc1 [MG 132] (Cbz-Leu-Leu-Leu-aldehyde)
- formation of sequestosome [3]: can induce formation of sequestosome

Compound: CC[C@H](C)[C@H](NC(=O)[C@H]([C@@H](C)CC)N(C)C(C)=O)C(=O)N[C@H](C(=O)N[C@@H](CC(C)C)C(=O)[C@@]1(C)CO1)[C@@H](C)O [epoxomicin]
- formation of sequestosome [3]: can induce formation of sequestosome
